# Like-named read-outs stand apart in the source and are kept apart here.
# What was measured:
# [1] = Pharmacokinetics in mice (plasma) after oral administration; type: in vivo, Balb/c mice
# Description: 5 g of Hydroxyethyl cellulose (HEC, CMC-Na, viscosity: 800-1200 Cps) was weighed, dissolved in 1000 mL of purified water, and 10 g of Tween 80 was added. The mixture was mixed well to form a clear solution.
# The compounds of the embodiments were weighed and added into 4-mL glass bottles, respectively, 2.4 mL of the solution was added, and ultrasound was performed for 10 minutes to obtain a colorless clear solution with a concentration of 1 mg/mL.
# Balb/C mice, males; PO, after overnight fasting, respectively, at a dose of 10 mg/kg, administered in a volume of 10 mL/kg.
# Blood samples were collected before administration and 0.083 h, 0.25 h, 0.5 h, 1 h, 2 h, 4 h, 6 h and 8 h after administration, the blood was placed in EDTA-2K tube, centrifuged at 4° C. 6000 rpm for 6 min to separate plasma, and stored at −80° C.; food was consumed 4 hours after drug administration.
# [2] = Plasma stability, mouse plasma; type: in vitro ADME
# Procedure, shortened: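 Compound from a 10 μM working solution in 100 mM phosphate buffer was incubated at 37°C in anticoagulated plasma from each species, with propantheline as positive control. Aliquots taken at 0, 15, 30, 60, 90 and 120 min were quenched in acetonitrile with internal standard. Remaining compound was quantified by LC-MS/MS (positive ESI, MRM).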
# CYP450 2C9 = biological target: T1, CYP450 2C9 (Homo sapiens, UniProt P11712); test: CYP enzyme single point inhibition test, human liver microsomes, 2C9; type: in vitro ADME; settings: single point method
# T1 construct: from tissue; host or cells: human liver microsomes
# Description: (§1) Using human liver microsomal incubation system, the inhibition of CYP450 enzyme subtypes by compounds was rapidly predicted by single point method.
# (§2) 2.5 mM NADPH: 100 mM phosphate buffer was added to 4.165 mg of NADPH (reduced nicotinamide adenine dinucleotide phosphate) to 2 mL. 0.25 mg/mL microsome: 4 mL of 100 mM phosphate buffer was added to 50 μL of 20 mg/mL microsome and mixed well.
# (§3) The embodiment compound to be tested was weighed and diluted to 10 mM with DMSO and then diluted to 100 µM with 100 mM phosphate buffer.
# (§4) • 1. In a 96-well plate, 40 μL of liver microsomes, 10 μL of substrate, 10 μL of compound to be tested were pre-incubated for 3 min. • 2. 40 μL of NADPH was added. • 3. 300 μL of acetonitrile termination solution containing internal standard was added at 20 min. • 4. Centrifugal injection.
# CYP450 2C19 = biological target: T2, CYP450 2C19 (Homo sapiens, UniProt P33261); test: CYP enzyme single point inhibition test, human liver microsomes, 2C19; type: in vitro ADME; settings: single point method
# T2 construct: from tissue; host or cells: human liver microsomes
# Description: as §1, §2, §3, §4
# CYP450 2D6 = biological target: T3, CYP450 2D6 (Homo sapiens, UniProt P10635); test: CYP enzyme single point inhibition test, human liver microsomes, 2D6; type: in vitro ADME; settings: single point method
# T3 construct: from tissue; host or cells: human liver microsomes
# Description: as §1, §2, §3, §4
# CYP450 3A4 = biological target: T4, CYP450 3A4 (Homo sapiens, UniProt P08684); test: CYP enzyme single point inhibition test, human liver microsomes, 3A4 (3A4-M, 3A4-T); type: in vitro ADME; settings: single point method
# T4 construct: from tissue; host or cells: human liver microsomes
# Description: as §1, §2, §3, §4
# [3] = Pharmacokinetics in MiaPaca 2 tumor-bearing mice (plasma, tumor tissue); type: in vivo; settings: female, mouse, po; Plasma, p.o. 6 mg/kg
# Description: The pharmacokinetic behavior of the compound of the embodiment 13-1 and AMG-510 compound, administered orally at a dose of 6 mg/kg, in mice (plasma, tumor tissue and intestine) was studied using MiaPaca 2 tumor-bearing mice as test animals.
# 24 MiaPaca 2 tumor-bearing mice, females. 3 for each time point (0 h, 1 h, 2 h, 4 h, 6 h, 8 h, 16 h, 24 h). Shanghai xipuer-bikai Laboratory Animal Co., Ltd, Animal Production License No. (SCXK (Shanghai) 2018-0006.
# Embodiment compound 13-1 and compound AMG-510 were weighed and dissolved in the solution, the mixture was shaken well, and ultrasound was performed for 15 minutes to obtain a uniform suspension with a concentration of 0.6 mg/mL.
# MiaPaca 2 tumor-bearing mice were administered at a dose of 6 mg/kg in a volume of 10 mL/kg, respectively, based on body weight p.o. after fasting (animals were not administered at point 0 h).
# Before and after administration, mice were sacrificed with CO2, 0.5 mL blood was collected from the heart and placed in EDTA-2K tube, centrifuged at 4° C. […] The duodenum, ileum and colon tissues were cut with scissors, the contents were removed and cleaned twice with PBS, after absorbing water with absorbent paper, they were weighed, placed in a 2 mL centrifuge tube and stored at −80° C.
# plasma protein = test: Plasma protein binding rate test, rat plasma; type: in vitro ADME; settings: 5 μM, 37° C., 6 hours
# Description: The embodiment compound was prepared into a 1 mM solution A with DMSO.
# Solution A was added to the plasma solution and prepared into a 5 μM solution B.
# • 1) 200 μL of solution B was added into the membrane. • 2) 350 μL of PBS was added to the outside of the membrane. • 3) Incubating in a 37° C. water bath for 6 hours. • 4) The samples were processed for dilution and detected by mass spectrometry.
# • instrument: Shimadzu LC-20 AD; • chromatographic column: phenomenex Gemiu® C18 (50*4.6 mm, 5 UM particle size); • mobile phase: A: Acetonitrile, B: 0.1% formic acid solution 0-0.5 min: 5% A→90% A, 2.0-2.1 min: 90% A→5% A; flow rate: 0.8 mL/min; running time: 5.0 min; injection volume: 5 μL.
# • instrument: API4000 Liquid Chromatography-Mass Spectrometry, AB, USA; • the ion source was electrospray ionization source (ESI); • the temperature of dry gas (N2) was 500° C.; • electrospray voltage was 5500V; • the detection method was positive ion detection; • the scanning mode was selective response monitoring (MRM); the scanning time was 0.1 s.
# [4] = 3A4-M, read-out: IC50 (μM) 3A4-M
# [5] = 3A4-T, read-out: IC50 (μM) 3A4-T
# [6] = Balb/c mice, PO 10 mg/kg, plasma
# T4 sequence (P08684 whole entry): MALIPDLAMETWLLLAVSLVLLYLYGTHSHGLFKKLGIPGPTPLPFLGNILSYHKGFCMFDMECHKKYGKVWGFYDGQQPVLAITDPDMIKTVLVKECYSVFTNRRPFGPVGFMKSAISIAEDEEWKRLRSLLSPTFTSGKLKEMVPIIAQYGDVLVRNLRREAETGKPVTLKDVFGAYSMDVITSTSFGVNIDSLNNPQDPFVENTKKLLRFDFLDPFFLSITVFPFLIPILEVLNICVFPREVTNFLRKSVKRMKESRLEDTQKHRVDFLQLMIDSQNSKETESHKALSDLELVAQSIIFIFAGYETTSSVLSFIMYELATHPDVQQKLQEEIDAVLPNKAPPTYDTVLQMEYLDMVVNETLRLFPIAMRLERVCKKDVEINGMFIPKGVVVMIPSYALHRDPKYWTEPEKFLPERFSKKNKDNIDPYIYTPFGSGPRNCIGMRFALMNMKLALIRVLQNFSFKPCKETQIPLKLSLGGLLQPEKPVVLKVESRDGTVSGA
# T1 sequence (P11712 whole entry): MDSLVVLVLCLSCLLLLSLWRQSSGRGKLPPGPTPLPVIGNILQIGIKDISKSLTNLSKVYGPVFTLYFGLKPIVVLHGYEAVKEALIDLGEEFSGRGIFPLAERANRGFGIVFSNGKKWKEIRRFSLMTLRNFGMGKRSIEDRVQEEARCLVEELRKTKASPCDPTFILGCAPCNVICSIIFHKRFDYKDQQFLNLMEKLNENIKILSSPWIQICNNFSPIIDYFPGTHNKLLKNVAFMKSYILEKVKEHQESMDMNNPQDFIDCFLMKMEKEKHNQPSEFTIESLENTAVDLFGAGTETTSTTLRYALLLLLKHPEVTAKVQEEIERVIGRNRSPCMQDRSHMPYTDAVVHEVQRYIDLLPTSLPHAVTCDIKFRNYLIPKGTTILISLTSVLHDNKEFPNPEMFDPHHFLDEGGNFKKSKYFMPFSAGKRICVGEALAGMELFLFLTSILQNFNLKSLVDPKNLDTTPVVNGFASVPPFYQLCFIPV
# T2 sequence (P33261 whole entry): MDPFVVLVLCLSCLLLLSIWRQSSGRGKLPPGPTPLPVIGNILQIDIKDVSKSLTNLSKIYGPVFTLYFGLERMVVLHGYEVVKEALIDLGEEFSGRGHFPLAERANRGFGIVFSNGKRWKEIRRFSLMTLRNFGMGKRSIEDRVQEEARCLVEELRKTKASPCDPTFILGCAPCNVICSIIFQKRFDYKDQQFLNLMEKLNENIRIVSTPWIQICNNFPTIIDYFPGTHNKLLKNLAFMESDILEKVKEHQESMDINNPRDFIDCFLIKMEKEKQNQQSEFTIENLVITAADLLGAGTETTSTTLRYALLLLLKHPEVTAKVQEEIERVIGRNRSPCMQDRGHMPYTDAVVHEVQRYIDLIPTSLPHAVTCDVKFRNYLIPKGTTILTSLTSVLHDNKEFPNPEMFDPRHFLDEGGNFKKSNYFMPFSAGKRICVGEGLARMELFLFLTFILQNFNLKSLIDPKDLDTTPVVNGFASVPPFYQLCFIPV
# T3 sequence (P10635 whole entry): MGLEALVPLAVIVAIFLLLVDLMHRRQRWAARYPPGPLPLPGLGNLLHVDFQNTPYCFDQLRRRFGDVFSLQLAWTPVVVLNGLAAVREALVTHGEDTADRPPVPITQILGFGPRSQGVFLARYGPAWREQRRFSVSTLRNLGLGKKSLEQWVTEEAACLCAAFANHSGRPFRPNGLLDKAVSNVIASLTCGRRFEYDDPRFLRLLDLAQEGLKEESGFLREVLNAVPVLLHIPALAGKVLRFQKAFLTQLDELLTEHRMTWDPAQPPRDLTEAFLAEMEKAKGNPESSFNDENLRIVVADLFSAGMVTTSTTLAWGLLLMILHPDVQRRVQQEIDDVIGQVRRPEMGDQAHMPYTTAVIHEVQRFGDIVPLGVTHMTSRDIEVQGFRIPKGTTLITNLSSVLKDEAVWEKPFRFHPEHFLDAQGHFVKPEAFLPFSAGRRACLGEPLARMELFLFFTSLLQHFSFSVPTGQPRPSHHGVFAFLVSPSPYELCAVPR
molecule,measurement,setting,value
"C=CC(=O)N1C[C@H](C)N(c2nc(=O)n(-c3c(SC)ccnc3C(C)C)c3nc(-c4c(N)ccc(Cl)c4F)c(Cl)cc23)C[C@H]1C (atropisomer, axis not shown) [Embodiment 13-1, P-4-((2S,5R)-4-Acryloyl-2,5-dimethylpiperazin-1-yl)-7-(6-amino-3-chloro-2-fluorophenyl)-6-chloro-1-(2-isopropyl-4-(methylthio)pyridin-3-yl)pyrido[2,3-d]pyrimidin-2(1H)-one]",half-life,"[1]; male, Balb/c, mouse, in vivo, po, 10 mg/kg",60 min
same,Residual rate (%) 0 min,"[2]; mouse, 0.5 μM",100.00%
same,Residual rate (%) 15 min,"[2]; mouse, 0.5 μM",100.58%
same,Residual rate (%) 30 min,"[2]; mouse, 0.5 μM",99.52%
same,Residual rate (%) 60 min,"[2]; mouse, 0.5 μM",99.64%
same,Residual rate (%) 120 min,"[2]; mouse, 0.5 μM",92.32%
same,IC50,CYP450 2C9,58.8 µM
same,IC50,CYP450 2C19,28.8 µM
same,IC50,CYP450 2D6,21.2 µM
same,IC50,CYP450 3A4; [4],4.7 µM
same,IC50,CYP450 3A4; [5],9.1 µM
same,MRT,[3],54 min
same,half-life,[3],30 min
"P-4-((2S,5R)-4-acryloyl-2,5-dimethylpiperazin-1-yl)-6-fluoro-7-(2-fluoro-6-hydroxyphenyl)-1-(2-isopropyl-4-(methylthio)pyridin-3-yl)pyrido[2,3-d]pyrimidin-2(1H)-one [Embodiment 2-1]",AUC0-∞,[1]; [6],1373 ng·h/mL
same,Cmax,[1]; [6],1823 ng/mL
same,MRT,[1]; [6],42 min
same,T1/2,[1]; [6],36 min
same,Tmax,[1]; [6],15 min
same,Residual rate (%) 0 min,"[2]; mouse plasma, 37° C.",100.00%
same,Residual rate (%) 15 min,"[2]; mouse plasma, 37° C.",102.67%
same,Residual rate (%) 30 min,"[2]; mouse plasma, 37° C.",98.51%
same,Residual rate (%) 60 min,"[2]; mouse plasma, 37° C.",95.49%
same,Residual rate (%) 120 min,"[2]; mouse plasma, 37° C.",84.58%
same,IC50,CYP450 2C9,84.6 µM
same,IC50,CYP450 2C19,> 100 µM
same,IC50,CYP450 2D6,> 100 µM
same,IC50,CYP450 3A4; [4],19 µM
same,IC50,CYP450 3A4; [5],> 100 µM
same,"Plasma protein binding rate, Rat",plasma protein,90.5

# — US20240325394A1, “SALT AND CRYSTAL FORM OF NITROGEN-CONTAINING HETEROCYCLIC DERIVATIVE, PREPARATION METHOD THEREFOR AND APPLICATION THEREOF” (SHANGHAI HANSOH BIOMEDICAL CO., LTD., priority 2020, published 2024)
